In PubChem BioAssay (NCI):
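Results reflect a 48-hour exposure of cells in 96-well plates to compound at five concentrations. GI50 = concentration required for 50% inhibition of growth. TGI is the concentration that stops growth completely.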

What was measured:
Assay in all cases: NCI tumour cell line growth inhibition, 48 h
SN12C renal = test system: SN12C renal
HT29 colon = test system: HT29 colon
EKVX NSCLC = test system: EKVX NSCLC
SF-539 CNS = test system: SF-539 CNS
A498 renal = test system: A498 renal
UACC-257 melanoma = test system: UACC-257 melanoma
SF-268 CNS = test system: SF-268 CNS
HCC-2998 colon = test system: HCC-2998 colon
KM20L2 colon = test system: KM20L2 colon
SK-OV-3 ovarian = test system: SK-OV-3 ovarian

Structure (SMILES) | GI50 (SN12C renal) [µM] | TGI (SN12C renal) [µM] | GI50 (HT29 colon) [µM] | TGI (HT29 colon) [µM] | GI50 (EKVX NSCLC) [µM] | TGI (EKVX NSCLC) [µM] | GI50 (SF-539 CNS) [µM] | TGI (SF-539 CNS) [µM] | GI50 (A498 renal) [µM] | TGI (A498 renal) [µM] | GI50 (UACC-257 melanoma) [µM] | TGI (UACC-257 melanoma) [µM] | GI50 (SF-268 CNS) [µM] | TGI (SF-268 CNS) [µM] | GI50 (HCC-2998 colon) [µM] | TGI (HCC-2998 colon) [µM] | TGI (KM20L2 colon) [µM] | TGI (SK-OV-3 ovarian) [µM] | GI50 (SK-OV-3 ovarian) [µM]
O=C(Nc1cccc(-n2ccc3c(NC(=O)c4ccccc4)nccc32)c1)Nc1cc(C(F)(F)F)cc(C(F)(F)F)c1 | 2.05 | 29.4 | 1.37 | 4.31 | 2.63 | > 50 | 1.39 | 4.76 | 1.53 | > 50 | 2.45 | 15.2 | 2.71 | > 50 | 2.1 | > 50 | – | – | –
CC(NC(=O)C(C)NC(=O)C(N)CCP(C)(=O)O)C(=O)O (centres undefined) | – | > 100 | – | > 100 | – | > 100 | – | > 100 | – | > 100 | – | > 100 | – | > 100 | – | > 100 | > 100 | > 100 | –
Nc1nc(SCc2ccc([N+](=O)[O-])cc2)nc2c1ncn2C1OC(COP(=O)(O)O)C(O)C1O (centres undefined) | – | > 100 | – | > 100 | – | > 100 | – | > 100 | – | > 100 | – | > 100 | – | > 100 | – | > 100 | > 100 | > 100 | –
N[C@H](C(=O)O)[C@H]1ON=C(Cl)[C@@H]1O | 13.6 | > 550 | 1.24 | > 296 | 11.2 | > 550 | 8.83 | > 362 | – | 137 | > 51.1 | > 550 | 5.1 | > 550 | 5.62 | > 173 | > 394 | > 231 | 4.86
CCOP(=O)(OCC)/C(C#N)=C/c1cn(C)cn1 | – | > 100 | – | > 100 | – | > 100 | – | > 100 | – | > 100 | – | > 100 | – | > 100 | – | > 100 | – | > 100 | –
O=S(=O)(CCBr)CCBr | – | 21.8 | – | 20.3 | – | – | – | 18.6 | – | 14.8 | – | 13.5 | – | 16.1 | – | 18.1 | 23.2 | 43.6 | –
CC1=Nc2nc(Cl)cn2C(=O)C1(Cl)Cl | – | > 10 | – | > 10 | – | > 10 | – | > 10 | – | > 10 | – | – | – | > 10 | – | > 10 | – | > 10 | –
Cc1ccc(N=N/C(=N\NC(=O)c2ccc(C)cc2)c2ccc(N(CCC#N)CCC#N)cc2C)cc1 | – | – | – | > 100 | – | > 100 | – | 45.1 | – | > 100 | – | > 100 | – | > 100 | – | > 100 | – | > 100 | –
C[Si](C)(OCCS(=O)(=O)O)C1(Cc2cccc3ccccc23)S(=O)(=O)OCCOS1(=O)=O | – | 41.3 | – | – | – | 32.3 | – | 39.5 | – | 30.8 | – | 80.1 | – | 79.5 | – | 30.7 | – | 35.6 | –
Cc1ccc(N2Cc3c(ccc4ccccc34)OP2(=O)Oc2ccc(Cl)c(C)c2)cc1 (centres undefined) | – | > 100 | – | > 100 | – | > 100 | – | > 100 | – | > 100 | – | > 100 | – | > 100 | – | > 100 | > 100 | > 100 | –
COc1ccc(-n2cnnc2-c2nsc3ccccc23)cc1 | – | > 100 | – | > 100 | – | > 100 | – | > 100 | – | – | – | > 100 | – | > 100 | – | > 100 | > 100 | – | –
